One data set deals with HL-60 VCR. The data set is described as follows: Raptinal toxicity in various cell lines, 24 hour IC50. As to conditions: HL60/VCR; HL-60 VCR (Human Leukemia Vincristine Resistant); 24 hour incubation; mean ± SD. Type of data set: cell-based. How it is done:
(§1) MTS Assay for Suspension Cells.
(§2) Serial dilutions of compound in 100% DMSO were added in triplicate (2 μL to each well) to empty wells of a 96-well plate. Suspension cells (HL-60, U-937, SKW 6.4, Jurkat W T, Jurkat CASP8^−/−, Jurkat FADD^−/−, Jurkat Bcl-2) cells in RPMI 1640 media were added to 96-well plates (198 μL containing 4×10^4 cells) and the cells incubated for 24 hours.

Data set [1] relates to various cancer and non-cancerous cell lines. The data set is described as follows: 24 hour IC50 across various cancer and non-cancerous cell lines. As to conditions: various cancer and non-cancerous cell lines (Table 1, FIG. 4D). Type of data set: cell-based. As to the method: as §1, §2
Sulforhodamine B Assay for Adherent Cells.
Serial dilutions of compound in 100% DMSO were added in triplicate (2 μL to each well) to empty wells of a 96-well plate. Adherent cells (3T3, Hs888Lu, MCF-7, HeLa, WT-MEF, 4T1, B16-F10, SK-MEL-5, MIA PaCa2, BT-549, MDA-MB-436, 143B, HOS, H460, H1993) cells were added to each well (5×10^3 cells in 198 μL of RPMI 1640, DMEM or EMEM media). The plates were incubated for 24 hours. The media was removed from the plate and ice-cold trichloroacetic acid (100 μL of 10% w/v trichloroacetic acid) was added to the plates which were then incubated at 4° C. overnight to fix the cells. […] The bound dye was released by the addition of unbuffered Tris-base (200 μL of 10 mM solution) and after a 30 min incubation at room temperature the absorbance at 510 nm was measured (Molecular Devices SpectraMax Plus 384 plate reader). The mean IC50 values and standard deviations were determined from three independent experiments.

The next data set concerns SKW 6.4 cells. The data set is described as follows: Immunoblotting of caspase activation. Format: cell-based, Human. As to conditions: 10 μM. As to the method:
U-937 cells (3×10^6 cells in 2 mL RPMI) or SKW 6.4 cells (5×10^6 cells in 2 mL RPMI) were treated with compound (1% final DMSO v/v) for the appropriate period of time. After centrifugation and washing with PBS, cells were lysed with RIPA lysis buffer containing protease cocktail inhibitor III (Calbiochem) and cell debris removed by centrifugation (16000×g 5 min). The lysate concentrations were normalized after determination of protein concentration by the Bradford assay and whole cell lysate (40-60 μg) was resolved by 4-20% gradient SDS-PAGE gel electrophoresis at 120 V for 70 min after which proteins were transferred onto PVDF membranes (60 V for 2 hours) and blocked in 5% BSA or fat-free milk in TBST (as per primary antibody manufacturer's instructions) overnight at 4° C. The membranes were blotted for molecules of interest with primary antibody (1:1000 in 5% BSA or milk in TBST) overnight at 4° C. The bound primary antibodies were detected using appropriate secondary HRP conjugated antibodies (1:5000 in TBST) for 1 hour at room temperature and visualized by ECL autoradiography or with an Image Quant LAS 4010. The membranes were stripped in acidic methanol, blocked and re-probed as necessary.
A general note: A western blot detects proteins with antibodies after separation by electrophoresis.

Data set [2] in a line: Pharmacokinetic profiling in mice. Format: in vivo, C57BL/6 mice. As to conditions: 37.5 mg/kg intravenously. How it is done: Pharmacokinetics and Toxicity Profiling in Mice.
All animal studies were performed with prior approval by the University of Illinois at Urbana-Champaign IACUC committee. Eight week old female C57BL/6 mice were used for all pharmacokinetic and toxicity experiments. […]. For toxicity assessment, Raptinal was administered intravenously as a single-dose injection across a dose range of 15-60 mg/kg, and mice were sacrificed 7 days post-injection for evidence of hematologic toxicity (n=3 mice/group).

A further data set has as its system B16-F10 melanoma. Put plainly: Syngeneic subcutaneous tumor model. Format: in vivo, C57BL/6 mice. As to conditions: 20 mg/kg IP once daily for 3 days. How it is done:
All animal studies were performed with prior approval by the University of Illinois at Urbana-Champaign IACUC committee. […]. Seven days (for B16-F10) and six days (for 4T1) after inoculation, the mice were randomized based upon tumor size with 7 mice per group. Vehicle or compound was administered intraperitoneally as a corn oil DMSO suspension (300 μL of 10% DMSO in trans fat-free corn oil, 20 mg/kg) once daily for 3 consecutive days for B16-F10 and 4 consecutive days for 4T1 models. Tumor measurements were performed every other day using a caliper and tumor volume was calculated using the equation (0.5×l×w^2).

The test system of data set [3] is caspase-3/-7 activity in MIA PaCa-2 cells. Put plainly: Whole cell caspase activity assay (Ac-DEVD-AFC). Format: cell-based, Human. As to conditions: transfected MIA PaCa-2 cells; 10 μM for 1 hour. How it is done: Whole Cell Caspase Activity Assay.
The caspase activity assay was conducted in 96-well plates using transfected cells (see Example 3 for transfection protocol). Transfected cells were treated with 10 μM Raptinal for 1 hour, which corresponded to 40% of maximal caspase-3/-7 activity achievable by Raptinal. After treatment, the media was replaced with PBS (150 μL) and 50 μL of freshly made 4× caspase assay buffer (containing 20 μM Ac-DEVD-AFC) (Stennicke and Salvesen, 1997). After one hour incubation at room temperature (^˜22° C.) in the dark, the fluorescence of cleaved AFC was read on a spectrofluorometer (Ex: 380 nm, Em: 500 nm). The results were expressed as the relative caspase-3/-7 activity and normalized by designating the vehicle (0.5% DMSO) as 0% activity and Raptinal treatment as 100% activity.

Another data set deals with Jurkat cells. The data set is described as follows: AV/PI assay in Jurkat cell lines (WT, caspase-8 deletion, FADD deletion, Bcl-2 upregulation). Type of data set: cell-based, Human. Conditions: 10 μM, 2 hours.

This is an account of results in patent US9682060B2, “Small molecules that induce intrinsic pathway apoptosis” (The Board of Trustees of the University of Illinois, priority 2015, dated 2017).

Molecules are shown by their SMILES. Entries after “also recorded” stand apart in the source; their conditions may differ.

Take `O=CC1(C2(C=O)c3ccccc3-c3ccccc32)c2ccccc2-c2ccccc21` [Raptinal, [9,9′]bifluorenyl-9,9′-dicarbaldehyde]: in the data set with HL-60 VCR, the IC50 – broadly, the concentration that gives 50% inhibition – stood at 1600 ± 500 nM. Besides, the IC50 in data set [1] lay in the range of 700 to 3400 nM. In the data set with SKW 6.4 cells, the “time of activation of initiator caspase-9” value turned out to be 20 min; the “time to complete cleavage of procaspase-9, procaspase-8 and procaspase-3” value was no more than 45 min. Further, the “procaspase-3 activation (immunoblot)” value in the data set on SKW 6.4 cells (one hour of exposure) is “the only agent capable of inducing procaspase-3 activation”. In data set [2], the peak plasma concentration came out at 134.5 ± 2.2 µM. The compound also gave a peak plasma concentration in data set [2] (mean ± SD, n=3) of 54.4 ± 0.9 µg/mL. In addition, the half-life (as a rule, how long it takes for the measured level to halve) in data set [2] (female, C57BL/6, mouse, in vivo, iv, mean ± SD, n=3, read-out: elimination half-life) was determined as 1.53 ± 0.0967 h. Moreover, in the data set with B16-F10 melanoma, the “retardation of tumor mass relative to controls” value came out at 60% and the “retardation of tumor volume relative to controls” value amounted to 60%. The “caspase-3/-7 activity as share of maximal activity achievable by Raptinal” value in data set [3] worked out at 40%. Besides, in the data set with Jurkat cells, the “sensitivity of Jurkat Bcl-2 overexpressing versus wild type cells” value is reported as “less susceptible; also recorded: partial resistance” and the “sensitivity of Jurkat caspase-8−/− versus wild type cells” value is on record as “equally susceptible; also recorded: equally as sensitive”.
